From patent publication US12018021B2 (UCB Biopharma SRL, priority 2018, dated 2024)

Molecular target: IgE-Tb / sFcεRIα-Y131A-AF488 (Homo sapiens, UniProt P01854, N146Q/N252Q)
Assay: IgE-Tb / sFcεRIα-Y131A-AF488 FRET assay (protocol for examples 234 to 501)
Format: binding
Settings: examples 234 to 501: compound with IgE-Tb 30 minutes before sFcεRIα-Y131A-AF488, incubated 18 hours at room temperature; read-out: Y131A FRET IC50 range
Method: For examples 234 to 501, the assay was conducted according to the following: Each assay reaction was conducted in a volume of 25 μl in a 384-well half-volume plate. 10 point compound serial dilutions (3-fold) were generated in DMSO at a concentration of ×50 that of the final assay concentration (FAC). Compound solutions were then prepared by diluting 10-fold in assay buffer. For the assay, 5l of diluted compound was added to 10 μl of IgE-Tb and incubated for 30 minutes before the addition of 10 μ[…]. FRET reagents FACs were 5 nM IgE-Tb, 25 nM […]. Usually the top FAC of compound in the assay was 10 μM. The final DMSO concentration was 2%. […] The maximum FRET signal (MAX) was measured in wells containing FRET reagents but no compound. The assay was incubated for 18 hours at room temperature, protected from light and evaporation, and with gentle agitation. Measurement of FRET for each well was carried out by exciting at 337 nm and measuring emission at 490/520 nm using a PHERAstar FSX plate reader (BMG Labtech). FRET ratio was calculated as follows: Emission at 520/7Emission at 490×1000. The FRET ratio was used for the data analysis. […] Z' above 0.5 was considered a good assay. Background signal (MIN) was subtracted from all wells. […] Percent inhibition was plotted against compound concentration. IC50 values for each compound were determined using four parameter logistic fit model using the XLFIT5 software package.

Chain of IgE-Tb / sFcεRIα-Y131A-AF488 (P01854 whole entry N146Q/N252Q): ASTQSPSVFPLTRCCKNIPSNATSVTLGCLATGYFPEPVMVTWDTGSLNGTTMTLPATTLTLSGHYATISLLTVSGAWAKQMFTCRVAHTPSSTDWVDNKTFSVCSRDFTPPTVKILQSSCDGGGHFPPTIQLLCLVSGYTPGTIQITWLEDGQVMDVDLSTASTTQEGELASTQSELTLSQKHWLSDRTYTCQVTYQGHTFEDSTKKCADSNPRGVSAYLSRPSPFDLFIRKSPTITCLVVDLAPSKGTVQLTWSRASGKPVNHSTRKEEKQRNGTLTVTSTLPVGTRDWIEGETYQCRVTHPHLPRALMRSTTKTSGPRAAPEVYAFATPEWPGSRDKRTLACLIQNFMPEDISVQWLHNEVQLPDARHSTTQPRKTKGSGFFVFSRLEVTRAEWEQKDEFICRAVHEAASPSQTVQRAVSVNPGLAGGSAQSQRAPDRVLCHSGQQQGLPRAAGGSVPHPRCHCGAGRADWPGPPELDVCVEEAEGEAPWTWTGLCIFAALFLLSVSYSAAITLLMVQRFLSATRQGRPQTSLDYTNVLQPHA

| SMILES | IC50 |
| --- | --- |
| Cn1nc(C(F)F)cc1Nc1nncn1[C@H]1CCc2sc(NC(=O)[C@H]3C[C@H](F)C3)c(C(=O)NC[C@H]3CC3(F)F)c2C1 (relative stereo) [Example 472, (5S)—N-[[(1R*)-2,2-difluorocyclopropyl]methyl]-5-[3-[[5-(difluoromethyl)-2-methyl-pyrazol-3-yl]amino]-1,2,4-triazol-4-yl]-2-[trans-(3-fluorocyclobutanecarbonyl)amino]-4,5,6,7-tetrahydrobenzothiophene-3-carboxamide [* or S]] | < 1000 nM |
| Cn1nc(C(F)F)cc1Nc1nncn1[C@H]1CCc2sc(NC(=O)[C@H]3CC3(F)F)c(C(=O)NC[C@H]3C[C@H]3F)c2C1 (relative stereo) [Example 498, (5S)-2-[[(1R*)-2,2-difluorocyclopropanecarbonyl]amino]-5-[3-[[5-(difluoromethyl)-2-methyl-pyrazol-3-yl]amino]-1,2,4-triazol-4-yl]-N-[[(1R,2R)-2-fluorocyclopropyl]methyl]-4,5,6,7-tetrahydrobenzothiophene-3-carboxamide (* or S)] | < 1000 nM |
| Cc1cc(Nc2nncn2[C@H]2CCc3sc(NC(=O)[C@H]4CC45CC5)c(C(=O)NCC4CC4)c3C2)n(C)n1 (relative stereo) [Example 500, (5S)—N-(cyclopropylmethyl)-5-[3-[(2,5-dimethylpyrazol-3-yl)amino]-1,2,4-triazol-4-yl]-2-[[(2S*)-spiro[2.2]pentane-2-carbonyl]amino]-4,5,6,7-tetrahydrobenzothiophene-3-carboxamide (* or R)] | < 1000 nM |
| O=C(NCC1CC1)c1c(NC(=O)C2CC2)sc2c1C[C@@H](n1cnnc1NC1CCS(=O)(=O)C1)CC2 (single isomer, unassigned) [Example 234, (5S)-2-(cyclopropanecarbonylamino)-N-(cyclopropylmethyl)-5-[3-[[(3S*)-1,1-dioxothiolan-3-yl]amino]-1,2,4-triazol-4-yl]-4,5,6,7-tetrahydrobenzothiophene-3-carboxamide] | < 1000 nM |
| Cc1c(Nc2nncn2[C@H]2CCc3sc(NC(=O)C4CC4)c(C(=O)NCC4CC4)c3C2)cccc1[S@@](C)(=N)=O (single isomer, unassigned) [Example 236] | < 1000 nM |
| Cc1c(Nc2nncn2[C@H]2CCc3sc(NC(=O)C4CC4)c(C(=O)NCC4CC4)c3C2)cccc1[S@](C)(=N)=O (single isomer, unassigned) [Example 237] | < 1000 nM |
| CC(=O)N1CC[C@](C)(Nc2nncn2[C@H]2CCc3sc(NC(=O)C4CC4)c(C(=O)NCC4CC4)c3C2)C1 (single isomer, unassigned) [Example 239, (5S)-5-[3-[[(3*)-1-acetyl-3-methyl-pyrrolidin-3-yl]amino]-1,2,4-triazol-4-yl]-2-(cyclopropanecarbonylamino)-N-(cyclopropylmethyl)-4,5,6,7-tetrahydrobenzothiophene-3-carboxamide] | < 1000 nM |
| CC1CN(S(C)(=O)=O)CC1Nc1nncn1[C@H]1CCc2sc(NC(=O)C3CC3)c(C(=O)NCC3CC3)c2C1 (single isomer, unassigned) [Example 242] | < 1000 nM |
| C[S@](=N)(=O)c1cccc(Nc2nncn2[C@H]2CCc3sc(NC(=O)C4CC4)c(C(=O)NCC4CC4)c3C2)c1 (single isomer, unassigned) [Example 253] | < 1000 nM |
| C[S@@](=N)(=O)c1cccc(Nc2nncn2[C@H]2CCc3sc(NC(=O)C4CC4)c(C(=O)NCC4CC4)c3C2)c1 (single isomer, unassigned) [Example 254] | < 1000 nM |
| CS(=O)(=O)c1cccc(Nc2nncn2[C@H]2CCc3sc(NC(=O)C4CC45CC5)c(C(=O)NCC4CC4)c3C2)n1 (single isomer, unassigned) [Example 256, (5S)—N-(cyclopropylmethyl)-5-[3-[(6-methylsulfonyl-2-pyridyl)amino]-1,2,4-triazol-4-yl]-2-[[(2S*)-spiro[2.2]pentane-2-carbonyl]amino]-4,5,6,7-tetrahydrobenzothiophene-3-carboxamide] | < 1000 nM |
| CC1CCCCC1Nc1nncn1[C@H]1CCc2sc(NC(=O)C3CC3)c(C(=O)NCC3CC3)c2C1 (single isomer, unassigned) [Example 269] | < 1000 nM |
| O=C1CC(Nc2nncn2[C@H]2CCc3sc(NC(=O)C4CC4)c(C(=O)NCC4CC4)c3C2)CN1 (single isomer, unassigned) [Example 271, (5S)-2-(cyclopropanecarbonylamino)-N-(cyclopropylmethyl)-5-[3-[[(3R*)-5-oxopyrrolidin-3-yl]amino]-1,2,4-triazol-4-yl]-4,5,6,7-tetrahydrobenzothiophene-3-carboxamide] | < 1000 nM |
| CC1C(Nc2nncn2[C@H]2CCc3sc(NC(=O)C4CC4)c(C(=O)NCC4CC4)c3C2)CCN1S(C)(=O)=O (single isomer, unassigned) [Example 274] | < 1000 nM |
| Cc1ccc(C2CC(Nc3nncn3[C@H]3CCc4sc(NC(=O)C5CC5)c(C(=O)NCC5CC5)c4C3)C2)cn1 (single isomer, unassigned) [Example 276] | < 1000 nM |
| Cn1nc(C(F)F)cc1Nc1nncn1[C@H]1CCc2sc(NC(=O)C3CC3(F)F)c(C(=O)NC[C@H]3C[C@H](F)C3)c2C1 (single isomer, unassigned) [Example 278, (5S)-2-[[(1R*)-2,2-difluorocyclopropanecarbonyl]amino]-5-[3-[[5-(difluoromethyl)-2-methyl-pyrazol-3-yl]amino]-1,2,4-triazol-4-yl]-N-[trans-(3-fluorocyclobutyl)methyl]-4,5,6,7-tetrahydrobenzothiophene-3-carboxamide] | < 1000 nM |
| Cn1nc(OC(F)F)cc1Nc1nncn1[C@H]1CCc2sc(NC(=O)C3CC3(F)F)c(C(=O)N[C@H]3C[C@H](F)C3)c2C1 (single isomer, unassigned) [Example 279, (5S)-2-[[(1R*)-2,2-difluorocyclopropanecarbonyl]amino]-5-[3-[[5-(difluoromethoxy)-2-methyl-pyrazol-3-yl]amino]-1,2,4-triazol-4-yl]-N-(trans-3-fluorocyclobutyl)-4,5,6,7-tetrahydrobenzothiophene-3-carboxamide] | < 1000 nM |
| Cn1nc(OC(F)F)cc1Nc1nncn1[C@H]1CCc2sc(NC(=O)C3CC3(F)F)c(C(=O)NC[C@H]3C[C@H](F)C3)c2C1 (single isomer, unassigned) [Example 280, (5S)-2-[[(1R*)-2,2-difluorocyclopropanecarbonyl]amino]-5-[3-[[5-(difluoromethoxy)-2-methyl-pyrazol-3-yl]amino]-1,2,4-triazol-4-yl]-N-[trans-(3-fluorocyclobutyl)methyl]-4,5,6,7-tetrahydrobenzothiophene-3-carboxamide] | < 1000 nM |
| Cn1nc(OC(F)F)cc1Nc1nncn1[C@H]1CCc2sc(NC(=O)C3CC3(F)F)c(C(=O)NC[C@@H]3C[C@@H]3F)c2C1 (single isomer, unassigned) [Example 281, (5S)-2-[[(1S*)-2,2-difluorocyclopropanecarbonyl]amino]-5-[3-[[5-(difluoromethoxy)-2-methyl-pyrazol-3-yl]amino]-1,2,4-triazol-4-yl]-N-[[(1S,2S)-2-fluorocyclopropyl]methyl]-4,5,6,7-tetrahydrobenzothiophene-3-carboxamide] | < 1000 nM |
| Cn1nc(C(F)F)cc1Nc1nncn1[C@H]1CCc2sc(NC(=O)C3CC3(F)F)c(C(=O)NCC3CC3(F)F)c2C1 (single isomer, unassigned) [Example 282] | < 1000 nM |
| Cn1nc(C(F)F)cc1Nc1nncn1[C@H]1CCc2sc(NC(=O)C3CC3(F)F)c(C(=O)NCC3CC3(F)F)c2C1 (single isomer, unassigned) [Example 283] | < 1000 nM |
| O=C(NCC1CC1)c1c(NC(=O)C2CC2)sc2c1C[C@@H](n1cnnc1NC1CCC3(CCN(c4ncccn4)C3)C1)CC2 (single isomer, unassigned) [Example 289] | < 1000 nM |
| Cn1nc(OC(F)F)cc1Nc1nncn1[C@H]1CCc2sc(NC(=O)[C@H]3C[C@H]3F)c(C(=O)NCC3CC3)c2C1 (single isomer, unassigned) [Example 349] | < 1000 nM |
| Cn1nc(OC(F)F)cc1Nc1nncn1[C@H]1CCc2sc(NC(=O)[C@@H]3C[C@@H]3F)c(C(=O)NCC3CC3)c2C1 (single isomer, unassigned) [Example 350] | < 1000 nM |
| Cn1nc(C(F)F)cc1Nc1nncn1[C@H]1CCc2sc(NC(=O)[C@@H]3C[C@@H]3F)c(C(=O)NCC3CC3)c2C1 (single isomer, unassigned) [Example 362] | < 1000 nM |
| Cn1nc(C(F)F)cc1Nc1nncn1[C@H]1CCc2sc(NC(=O)[C@H]3C[C@H]3F)c(C(=O)NCC3CC3)c2C1 (single isomer, unassigned) [Example 363] | < 1000 nM |
| Cn1nc(C(F)F)cc1Nc1nncn1[C@H]1CCc2sc(NC(=O)[C@@H]3C[C@H]3F)c(C(=O)NCC3CC3)c2C1 (single isomer, unassigned) [Example 367] | < 1000 nM |
| Cn1nc(OC(F)F)cc1Nc1nncn1[C@H]1CCc2sc(NC(=O)[C@H]3C[C@@H]3F)c(C(=O)NC[C@H]3CC3(F)F)c2C1 (single isomer, unassigned) [Example 374] | < 1000 nM |
| Cn1nc(OC(F)F)cc1Nc1nncn1[C@H]1CCc2sc(NC(=O)[C@H]3C[C@@H]3F)c(C(=O)NC[C@@H]3CC3(F)F)c2C1 (single isomer, unassigned) [Example 375] | < 1000 nM |
